Measured values from US5719169A, “Substituted benzoylguanidines, their use as a medicament or diagnostic, and medicament containing them” (priority 1993, dated 1998).
Where a name gives a salt, the structure may show the parent alone.

Key:
[1] = biological target: T1, Na^+ /H^+ exchanger of rabbit erythrocytes (Oryctolagus cuniculus, UniProt P23791); assay: Inhibition of the Na^+ /H^+ exchanger of rabbit erythrocytes (amiloride-sensitive sodium influx, flame photometry); type: cell-based, rabbit (New Zealand White); conditions: pH 7.4, 37° C., hyperosmolar salt/sucrose medium
T1 construct: exchanger of rabbit erythrocytes; from tissue; host or cells: erythrocytes in blood of cholesterol-fed New Zealand White rabbits
Description: Inhibition of the Na^+ /H^+ exchanger of rabbit erythrocytes
New Zealand White rabbits (Ivanovas) received a standard diet containing 2% cholesterol for six weeks in order to activate the Na^+ /H^+ exchange and thus to be able to determine, by flame photomerry, the Na^+ influx into the erythrocytes via Na^+ /H^+ exchange. The blood was removed from the aural arteries and rendered incoagulable using 25 IU of potassium heparin. A part of each sample was used for the duplicate determination of the hematocrit by means of centrifugation. Aliquots of in each case 100 μl were used for measuring the initial Na^+ content of the erythrocytes.
In order to determine the amiloride-sensitive sodium influx, 100 μl of each blood sample were in each case incubated, at pH 7.4 and 37° C., in 5 ml of a hyperosmolar salt/sucrose medium (mmol/1: 140 NaCl, 3 KCl, 150 sucrose, 0.1 ouabain, 20 tris(hydroxymethyl)aminomethane). The erythrocytes were then washed three times with ice-cold MgCl2 /ouabain solution ([…]: 112 MgCl2, 0.1 ouabain) and hemolyzed in 2.0 ml of distilled water. The intracellular sodium content was determined by flame photometry.
The net influx of Na^+ was calculated from the difference between the initial sodium values and the sodium content of the erythrocytes following incubation. The amiloride-inhibitable sodium influx was calculated from the difference in the sodium content of the erythrocytes following incubation with and without amiloride 3×10^-4 mol/1. This method was also employed in the case of the compounds according to the invention.

cardiac arrhythmias = conditions: cited from earlier work

T1 sequence (P23791 whole entry): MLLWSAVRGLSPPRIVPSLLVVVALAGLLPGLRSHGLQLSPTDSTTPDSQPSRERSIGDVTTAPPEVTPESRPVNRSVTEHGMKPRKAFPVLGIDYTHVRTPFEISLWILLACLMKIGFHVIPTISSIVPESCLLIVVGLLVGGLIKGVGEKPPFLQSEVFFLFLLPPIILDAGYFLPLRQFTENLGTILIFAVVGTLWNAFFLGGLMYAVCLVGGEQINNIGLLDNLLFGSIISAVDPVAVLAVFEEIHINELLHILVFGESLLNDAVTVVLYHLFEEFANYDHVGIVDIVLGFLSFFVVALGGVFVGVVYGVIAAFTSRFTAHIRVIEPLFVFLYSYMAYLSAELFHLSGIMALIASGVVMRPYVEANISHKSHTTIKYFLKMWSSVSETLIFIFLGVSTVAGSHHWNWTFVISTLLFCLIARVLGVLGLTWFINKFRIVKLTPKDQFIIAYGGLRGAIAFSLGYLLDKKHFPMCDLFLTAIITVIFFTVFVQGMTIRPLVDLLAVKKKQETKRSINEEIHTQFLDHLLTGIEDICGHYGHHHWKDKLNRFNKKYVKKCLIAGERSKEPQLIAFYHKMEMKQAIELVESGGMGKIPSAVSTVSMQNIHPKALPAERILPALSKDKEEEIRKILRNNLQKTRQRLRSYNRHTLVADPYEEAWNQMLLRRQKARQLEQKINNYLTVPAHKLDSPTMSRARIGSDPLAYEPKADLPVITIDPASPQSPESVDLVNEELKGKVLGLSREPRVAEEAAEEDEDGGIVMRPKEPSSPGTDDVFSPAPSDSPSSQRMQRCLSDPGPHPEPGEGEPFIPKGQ

Row | Structure (SMILES) | IC50 [1] [µM] | antiarrhythmic effect (cardiac arrhythmias; Circulation 79, 1257 to 1263 (1989)) | hypotensive and saluretic side effects (cardiac arrhythmias; in vivo)
1 | CS(=O)(=O)c1cc(C(=O)N=C(N)N)ccc1Oc1ccc(-c2ccccn2)cc1 [Example 5, 4-[4-(2-Pyridyl)phenoxy]-3-methylsulfonylbenzoylguanidine, dihydrochloride] | 0.3 | – | –
2 | CS(=O)(=O)c1cc(C(=O)N=C(N)N)ccc1Oc1ccc(-c2cccnc2)cc1 [Example 3, 4-[4-(3-Pyridyl)phenoxy]-3-methylsulfonylbenzoylguanidine, dihydrochloride] | 0.2 | – | –
3 | N=C(N)NC(=O)c1nc(Cl)c(N)nc1N [amiloride, Amiloride] | – | only weakly expressed | accompanied by hypotensive and saluretic effects
4 | CS(=O)(=O)c1cc(C(=O)N=C(N)N)ccc1Oc1ccc(-c2ncc[nH]2)cc1 [Example 2, 4-(Imidazol-2-yl)phenoxy-3-methylsulfonylbenzoylguanidine, dihydrochloride] | 0.3 | – | –
5 | CS(=O)(=O)c1cc(C(=O)N=C(N)N)ccc1Oc1ccc(-c2nccn2Cc2ccccc2)cc1 [Example 1, 4-(1-Benzylimidazol-2-yl)phenoxy-3-methylsulfonylhenzoylguanidine, dihydrochloride] | 0.3 | – | –
